Measured values from patent publication US20090081143A1, “Extracts From Black Yeast For Whitening Skin” (priority 2007, published 2009).

Test system: UV-B induced tan
Assay: Whitening action: fading of UV-B induced tan on the backs of volunteers (Minolta Chromameter reflectance)
Assay type: in vivo, human
Settings: FIG. 5; 1% extract or 2% kojic acid in Example 4 cream; 2 mg/cm^2 once a day; nine volunteers
Procedure: A comparative study is done to determine the whitening efficacy of an Exophiala mansonii-derived enzyme extract in comparison to the efficacy of a known tyrosinase inhibitor, kojic acid. More specifically, the study was designed to study the lightening effect of these materials (reduction in tanning) using the fading of UV-B induced tan as a marker. Two samples are prepared. The first sample contains the composition described in Example 4. The second sample has the same composition as that described in Example 4 except that 2% kojic acid is substituted for the 1% Exophiala mansonii enzyme extract. Nine volunteers participate in the study. The volunteer panelists are in normal health with no evidence of acute or chronic disease including dermatological problems. […] Tanning is observed for six days after irradiation at which point color measurements are made using a Minolta Chromameter which measures the difference in reflectance of the skin, L. The change in the value of the difference in reflectance, ΔL*, is measured against a baseline skin color value of untreated irradiated skin measured on day 6. […] The observed reflectance values for all the time points are recorded, and the area under the curve for each test site was calculated. The Whitening Factor is calculated as the area under the curve of the treated site subtracted from the untreated site, and is shown in FIG. 5.

Question: How did the “Whitening Factor (area under the curve of the treated site subtracted from the untreated site)” value turn out when `O=c1cc(CO)occ1O` [kojic acid] was run?
Answer: 1.8
